Five compounds from patent US20230272479A1, “BIOMARKER BASED PATIENT SELECTION FOR PROTEASOME INHIBITOR TREATMENT” (University of Utah Research Foundation, priority 2020, published 2023) can be followed below.

Residues, ends and D or L forms follow the SMILES beside them. *: point of attachment. Cbz = O=C(OCc1ccccc1)*; CH2F = FC*

One assay concerns Jurkat cells. Nature of the assay: Viability of WT or ATAD1Δ Jurkat cells after treatment with MCL1 inhibitor. The conditions noted are these: ATAD1Δ vs WT Jurkat cells, 24 hr treatment. Type of assay: cell-based, human. Here is the method:
FIGS. 2A-2G show genome-wide CRISPR screens identify genetic interactions with ATAD1 (A) Schematic of CRISPR screening strategy (B) Generation of clonal ATAD1 knockout in a PTEN-null genetic background of Jurkat cells and proliferation rate of ATAD1Δ and WT Jurkat cells in RPMI1640 media (C) Volcano plot of CRISPR screening results; CRISPR scores were defined as the mean Log2 fold-change of sgRNAs targeting a given gene. Differential CRISPR scores (dCS) were calculated by subtracting the WT CS from the ATAD1Δ CS. dCS combined is the sum of dCS values for each clone. P-values were calculated for each gene using Kolmogorov-Smirnov with Benjamini Hochberg correction and Fisher's Method for P value meta-analysis. Dashed lines demarcate dCS<−2 and Padj<0.05 (D) DepMap data showing correlation of MARCH5 dependency and MCL1 dependency (E) Western blot of whole cell lysates from WT or ATAD1Δ Jurkat cells showing steady-state levels of BIM, MCL1, and FIS1, a non-BCL2 family control (F) Quantification of BIMEL levels in ATAD1Δ cells; n=6 independent experiments (G) Viability of WT or ATAD1Δ Jurkat cells after 24 hr treatment with the MCL1 inhibitor, AMG176.
Thus, like MARCH5, ATAD1 modulates members the BCL2 family and affects apoptotic priming as measured by sensitivity to a BH3-mimetic. […]

The subject of the next assay is H4 glioma cells. Nature of the assay: BH3 profiling (cytochrome C release / MOMP) in permeabilized H4 glioma cells. The conditions noted are these: compared across ATAD1 status. Type of assay: cell-based. Here is the method:
Cells were treated with doxycycline (250 ng/mL) for 24 hr (F) Co-immunoprecipitation of ATAD1-FLAG/HA and GFP-BIMEL in cells stably expressing ATAD1-FLAG or EV and transiently transfected overnight with GFP-BIMEL in the presence of zVAD-fmk (G) RPMI7951 cells were treated with MG132 (10 μM) for 4 hr, whole-cell lysates were prepped and analyzed by Western blot. (H) Schematic of reconstituted proteoliposome extraction assay (I) Extraction assay using His-ATAD1 and 3×FLAG-BIML (lanes 1-4, 9-20) or the negative control TA protein, 3×FLAG-Fis1 (lanes 5-8); GST-tagged SGTA and calmodulin (CaM) are included as chaperones to catch extracted TA protein. “I”=Input, “FT”=flow-through, “W”=final wash, “E”=elution. Eluted fractions represent TA proteins extracted by ATAD1 and bound by GST-tagged chaperones; compare elution “E” to input “I”. † denotes P<0.0001
To gain insight into how loss of ATAD1 affects apoptotic priming, BH3 profiling was conducted (33). Here, permeabilized cells are treated with BH3 peptides derived from different pro-apoptotic BH3-only proteins, and mitochondrial outer membrane permeability (MOMP) is directly measured by detecting cytochrome C release from mitochondria (FIG. 3A). […] This priming reflects a change in how the cell regulates the endogenous BIM protein. […]

The test system of assay [1] is Del10q23 cells (RPMI7951). Nature of the assay: Apoptosis by Western blot of whole cell lysate after bortezomib. To be noted: RPMI7951, 10 nM, 8 hr. The class given is cell-based. Here is the method: (§1) FIGS. 4A-4K show ATAD1 protects cells from apoptosis induced by proteasome dysfunction. (A) Viability of SW1088 cells transduced with EV or ATAD1-FLAG and treated for 24 hr with indicated drugs (B) Time-course of viability in response to bortezomib treatment in SW1088 cells (C) Western blot of RPMI7951 whole cell lysate treated with 10 nM bortezomib for 8 hr (D) Quantification of C (E) Viability of ATAD1-null vs. re-expressing RPMI7951 cells in response to 16 hr treatment with BTZ and the pan-caspase inhibitor, zVAD-FMK (20 μM) or DMSO (zVAD vehicle) (F) Same as E, but viability was measured by crystal violet staining and quantified in (G). (H) Schematic describing the role of ATAD1 in proteasome inhibitor toxicity (I) Tumor size of subcutaneous xenografts of SW1088 cells in NOD/SCID mice over time (J) Incidence of palpable tumors, or tumor-free survival, over time (K) Proliferation of cultured SW1088 cells as measured with crystal violet staining, n=2 independent experiments. † represents P<0.0001
Whole cell lysates were prepared by scraping cells directly into RIPA buffer supplemented with protease and phosphatase inhibitors (Sigma Aldrich P8340, Roche Molecular 04906845001), incubated on ice for 30 minutes with vortexing every 10 min, and then spun at 16,000 g for 10 minutes at 4° C. to remove insoluble material. Supernatant was saved as lysate. […]
(In general: In western blotting, separated proteins are transferred to a membrane and probed.)

The test system of assay [2] is Del10q23 cells (SW1088 and H4 glioma and RPMI7951 melanoma). The experiment in a line: Viability of Del10q23 cells treated with proteasome inhibitors (Cell Titer Glo, crystal violet). Type of assay: cell-based. Here is the method: as §1
(§2) FIGS. 8A-8I show restoring ATAD1 expression in Del(10q23) cells increases resistance to proteasome inhibitors. (A) RPMI7951 cells were treated for 16 hr with bortezomib or carfilzomib and viability was measured by Cell Titer Glo. (B) Time-course of RPMI7951 cells treated with bortezomib (3.125 nM) n=3 biological replicates (C) SW1088 cells were cultured in 5 nM bortezomib for 48 hr and RPMI7951 cells were cultured for 24 hr and viability was assessed by crystal violet staining (D) H4 cells were treated with bortezomib for 24 hr and assessed by Cell Titer Glo (E) ATAD1 addback rescues mitochondrial morphology phenotype in response to bortezomib in SW1088 cells. Cells were treated with BTZ (10 nM) for 12 hr and stained with MitoTracker Red, then imaged on a widefield fluorescence microscope (F) Expression of ATAD1 in DepMap cell lines, highlighting PC3 cells (ATAD1 hemizygous), and two Del10q23 cell lines (G) Generation of ATAD1-deficient, polyclonal PC3 cells using stable expression of sgATAD1 (in LCv2G), with untargeted Cas9 only as a control (LCv2G) (H) Deletion of ATAD1 increases sensitivity to bortezomib in PC3 cells. […]
Viability was determined by Cell Titer Glo (Promega) according to the manufacturer's recommendation, with some modifications. […] Luminescence was measured using a Biotek Synergy Neo2 microplate reader. Luminescence values were normalized on each plate to untreated cells on the same plate, and expressed as percent.
Cells cultured in 12 or 6 well plates were washed twice with PBS then fixed with 4% paraformaldehyde (Sigma Aldrich) for 30 minutes at room temperature. […] Absorbance was measured at 590 nm using a Biotek Synergy Neo2 microplate reader, and values were normalized to those from untreated cells of the same genotype on each plate.
(In general: In ATP-based viability assays light output follows the ATP content of the culture.)

Another assay has as its system PC3 cells. The experiment in a line: Viability of PC3 cells with ATAD1 deletion or overexpression treated with bortezomib. Type of assay: cell-based. As to the method: as §2
Viability was determined by Cell Titer Glo (Promega) according to the manufacturer's recommendation, with some modifications. […] Luminescence was measured using a Biotek Synergy Neo2 microplate reader. […]

Another assay has as its system RPMI7951 cells. Nature of the assay: Viability of ATAD1-null vs. re-expressing RPMI7951 cells with BTZ and pan-caspase inhibitor. Type of assay: cell-based. The conditions noted are these: 16 hr BTZ, zVAD-FMK 20 μM. As to the method: as §1
Viability was determined by Cell Titer Glo (Promega) according to the manufacturer's recommendation, with some modifications. […] Luminescence was measured using a Biotek Synergy Neo2 microplate reader. Luminescence values were normalized on each plate to untreated cells on the same plate, and expressed as percent. […]

Where [3] appears, read: Del10q23 cells (ATAD1-null, EV).
The mark [4] stands for this setting: Del10q23 cells with expression of ATAD1.

In the case of `CO[C@H]1/C=C/C[C@H](C)[C@@H](C)S(=O)(=O)NC(=O)c2ccc3c(c2)N(C[C@@H]2CC[C@H]21)C[C@@]1(CCCc2cc(Cl)ccc21)CO3` [AMG176], the “apoptotic priming (sensitivity to BH3-mimetic, viability)” value in the assay on Jurkat cells is recorded as “primed cells for apoptosis induced by AMG176”.

With `CC(=O)NC(C)(C)C(=O)N1CCC[C@H]1C(=O)NC(C)(C)C(=O)N[C@@H](C)C(=O)NC(C)(C)C(=O)N[C@@H](C)C(=O)N[C@@H](CCC(N)=O)C(=O)NC(C)(C)C(=O)N[C@H](C(=O)NC(C)(C)C(=O)NCC(=O)N[C@@H](CC(C)C)C(=O)NC(C)(C)C(=O)N1CCC[C@H]1C(=O)N[C@H](C(=O)NC(C)(C)C(=O)NC(C)(C)C(=O)N[C@@H](CCC(=O)O)C(=O)N[C@@H](CCC(N)=O)C(=O)N[C@H](CO)Cc1ccccc1)C(C)C)C(C)C` [Alamethicin] (HELM PEPTIDE1{[ac].[Aib].P.[Aib].A.[Aib].A.Q.[Aib].V.[Aib].G.L.[Aib].P.V.[Aib].[Aib].E.Q.[OC[C@H](Cc1ccccc1)N[*:1]]}$$$$V2.0), in the assay with H4 glioma cells, the “cytochrome C release” value was “induced cytochrome C release equally regardless of ATAD1 status”.

Take `CC(C)C[C@H](NC(=O)[C@H](Cc1ccccc1)NC(=O)c1cnccn1)B(O)O` [bortezomib]: the apoptosis result was “only minimally” in assay [1] (ATAD1 re-expressing cells) and “robust apoptosis” in assay [1] (Del10q23-EV cells). Further, the loss of viability entry in assay [2] (setting [3]) is “potently and rapidly induced a loss of viability”; in assay [2] (setting [4]), “mitigated by expression of ATAD1”. For the same compound, in the assay on PC3 cells (deletion of the remaining allele of ATAD1), the “sensitivity (viability)” value is given as “sensitized to bortezomib”. The “resistance (viability)” value in the assay on PC3 cells (overexpression of ATAD1 (not ATAD1E193Q)) was “increased resistance to bortezomib”.

Consider `CC(C)C[C@H](NC(=O)[C@H](CCc1ccccc1)NC(=O)CN1CCOCC1)C(=O)N[C@@H](Cc1ccccc1)C(=O)N[C@@H](CC(C)C)C(=O)[C@@]1(C)CO1` [carfilzomib], for which the loss of viability result in assay [2] (setting [3]) was “potently and rapidly induced a loss of viability”; in assay [2] (setting [4]), “mitigated by expression of ATAD1”.

On to `COC(=O)C[C@H](NC(=O)[C@H](C)NC(=O)[C@@H](NC(=O)OCc1ccccc1)C(C)C)C(=O)CF` [zVAD] (Cbz-Val-Ala-Asp(OMe)-CH2F), for which the “effect on viability under bortezomib” value in the assay with RPMI7951 cells is reported as “minimal additive effect”.
